Experimental findings from PMC4685510, “A Cell Biologist’s Field Guide to Aurora Kinase Inhibitors” (Frontiers in Oncology, 2015) are described below.

Holding throughout (experiment): biochemical
Assay type in all cases: biochemical

Assay [1] addresses T1, 363 human kinases (including Aurora A/B/C) (Homo sapiens, UniProt Q56UN5).
T1 sequence (Q56UN5 1-1328): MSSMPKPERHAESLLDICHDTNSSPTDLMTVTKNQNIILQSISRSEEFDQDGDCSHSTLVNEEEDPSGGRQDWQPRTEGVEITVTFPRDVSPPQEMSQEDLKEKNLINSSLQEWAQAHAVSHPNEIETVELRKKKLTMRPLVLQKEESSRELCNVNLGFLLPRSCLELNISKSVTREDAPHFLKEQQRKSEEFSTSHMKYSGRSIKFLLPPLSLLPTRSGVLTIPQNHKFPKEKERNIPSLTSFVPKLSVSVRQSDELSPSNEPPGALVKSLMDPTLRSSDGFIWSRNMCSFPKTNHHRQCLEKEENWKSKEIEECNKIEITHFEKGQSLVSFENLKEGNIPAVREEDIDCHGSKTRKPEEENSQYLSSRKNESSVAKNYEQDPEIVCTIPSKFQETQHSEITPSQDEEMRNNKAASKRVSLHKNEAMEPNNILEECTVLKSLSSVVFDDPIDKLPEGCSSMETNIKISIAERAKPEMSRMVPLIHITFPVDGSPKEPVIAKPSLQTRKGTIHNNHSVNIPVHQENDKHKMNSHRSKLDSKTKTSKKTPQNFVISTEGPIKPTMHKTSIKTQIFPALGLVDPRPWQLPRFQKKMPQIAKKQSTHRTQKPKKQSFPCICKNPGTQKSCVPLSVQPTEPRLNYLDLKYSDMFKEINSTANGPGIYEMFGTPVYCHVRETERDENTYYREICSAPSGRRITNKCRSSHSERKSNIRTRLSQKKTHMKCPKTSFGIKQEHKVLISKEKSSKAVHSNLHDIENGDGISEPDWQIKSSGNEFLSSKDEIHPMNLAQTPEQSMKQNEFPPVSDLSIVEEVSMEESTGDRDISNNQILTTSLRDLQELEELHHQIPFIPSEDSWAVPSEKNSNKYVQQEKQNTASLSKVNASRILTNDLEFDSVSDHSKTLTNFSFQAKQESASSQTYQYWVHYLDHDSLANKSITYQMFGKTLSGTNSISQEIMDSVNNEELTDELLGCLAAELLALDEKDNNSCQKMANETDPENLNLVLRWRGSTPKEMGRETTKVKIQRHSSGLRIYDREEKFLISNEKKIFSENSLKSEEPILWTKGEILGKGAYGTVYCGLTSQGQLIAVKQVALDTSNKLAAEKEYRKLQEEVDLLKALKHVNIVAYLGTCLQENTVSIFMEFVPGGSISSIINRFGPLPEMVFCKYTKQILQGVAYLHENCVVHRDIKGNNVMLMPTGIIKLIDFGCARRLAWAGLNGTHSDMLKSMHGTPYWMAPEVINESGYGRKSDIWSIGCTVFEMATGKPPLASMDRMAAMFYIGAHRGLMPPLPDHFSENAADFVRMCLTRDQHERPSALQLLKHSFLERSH
The note with it: YSK4/MAP3K19; for remaining activity at 0.1 µM: 100 nM; for remaining activity at 0.1 µM / remaining activity at 0.5 µM: read-out: % Enzyme Activity (relative to DMSO controls).
Excerpt: (§1) However, the Aurora A/B selectivity ratios derived from our in vitro and in vivo data can be compared to prioritize inhibitors.

For assay [2], the target named is T2, 363 human kinases (including Aurora A/B/C) (Homo sapiens, UniProt P54762).
T2 sequence (P54762 18-984): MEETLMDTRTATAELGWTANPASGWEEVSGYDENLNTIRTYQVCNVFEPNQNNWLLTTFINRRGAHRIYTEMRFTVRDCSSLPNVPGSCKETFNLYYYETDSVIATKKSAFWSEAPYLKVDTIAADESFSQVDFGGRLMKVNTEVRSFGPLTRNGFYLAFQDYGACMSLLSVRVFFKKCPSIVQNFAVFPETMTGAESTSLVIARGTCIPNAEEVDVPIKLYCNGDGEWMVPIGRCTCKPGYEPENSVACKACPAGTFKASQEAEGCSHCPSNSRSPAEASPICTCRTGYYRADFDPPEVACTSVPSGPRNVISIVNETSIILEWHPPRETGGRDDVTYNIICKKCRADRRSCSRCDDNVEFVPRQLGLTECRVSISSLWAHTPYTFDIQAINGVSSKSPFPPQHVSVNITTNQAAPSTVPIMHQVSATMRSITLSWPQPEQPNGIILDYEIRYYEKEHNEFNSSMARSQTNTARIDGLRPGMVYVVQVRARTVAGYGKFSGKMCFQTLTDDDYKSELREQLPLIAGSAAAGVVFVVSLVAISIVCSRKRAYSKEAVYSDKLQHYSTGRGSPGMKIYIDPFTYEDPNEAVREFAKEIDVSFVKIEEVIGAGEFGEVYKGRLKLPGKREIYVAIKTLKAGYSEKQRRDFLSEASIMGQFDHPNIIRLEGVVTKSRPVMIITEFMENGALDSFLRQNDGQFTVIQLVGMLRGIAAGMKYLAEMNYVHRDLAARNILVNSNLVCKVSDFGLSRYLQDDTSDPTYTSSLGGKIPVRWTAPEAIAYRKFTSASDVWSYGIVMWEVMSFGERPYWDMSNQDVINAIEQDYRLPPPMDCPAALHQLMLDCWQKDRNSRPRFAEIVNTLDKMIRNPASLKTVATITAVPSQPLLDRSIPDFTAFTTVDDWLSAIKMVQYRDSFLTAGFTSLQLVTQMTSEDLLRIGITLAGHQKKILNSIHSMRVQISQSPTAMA
To be noted: EPHB1, [ATP] 100 µM; for remaining activity at 0.1 µM: 100 nM; for remaining activity at 0.1 µM / remaining activity at 0.5 µM: read-out: % Enzyme Activity (relative to DMSO controls).
Excerpt: as §1

The target in assay [3] is 363 human kinases (including Aurora A/B/C) (Homo sapiens, UniProt Q6IQ55). The note with it: TTBK2; for remaining activity at 0.1 µM: 100 nM; for remaining activity at 0.1 µM / remaining activity at 0.5 µM: read-out: % Enzyme Activity (relative to DMSO controls).
Sequence of 363 human kinases (including Aurora A/B/C) (Homo sapiens, UniProt Q6IQ55) (Q6IQ55 whole entry): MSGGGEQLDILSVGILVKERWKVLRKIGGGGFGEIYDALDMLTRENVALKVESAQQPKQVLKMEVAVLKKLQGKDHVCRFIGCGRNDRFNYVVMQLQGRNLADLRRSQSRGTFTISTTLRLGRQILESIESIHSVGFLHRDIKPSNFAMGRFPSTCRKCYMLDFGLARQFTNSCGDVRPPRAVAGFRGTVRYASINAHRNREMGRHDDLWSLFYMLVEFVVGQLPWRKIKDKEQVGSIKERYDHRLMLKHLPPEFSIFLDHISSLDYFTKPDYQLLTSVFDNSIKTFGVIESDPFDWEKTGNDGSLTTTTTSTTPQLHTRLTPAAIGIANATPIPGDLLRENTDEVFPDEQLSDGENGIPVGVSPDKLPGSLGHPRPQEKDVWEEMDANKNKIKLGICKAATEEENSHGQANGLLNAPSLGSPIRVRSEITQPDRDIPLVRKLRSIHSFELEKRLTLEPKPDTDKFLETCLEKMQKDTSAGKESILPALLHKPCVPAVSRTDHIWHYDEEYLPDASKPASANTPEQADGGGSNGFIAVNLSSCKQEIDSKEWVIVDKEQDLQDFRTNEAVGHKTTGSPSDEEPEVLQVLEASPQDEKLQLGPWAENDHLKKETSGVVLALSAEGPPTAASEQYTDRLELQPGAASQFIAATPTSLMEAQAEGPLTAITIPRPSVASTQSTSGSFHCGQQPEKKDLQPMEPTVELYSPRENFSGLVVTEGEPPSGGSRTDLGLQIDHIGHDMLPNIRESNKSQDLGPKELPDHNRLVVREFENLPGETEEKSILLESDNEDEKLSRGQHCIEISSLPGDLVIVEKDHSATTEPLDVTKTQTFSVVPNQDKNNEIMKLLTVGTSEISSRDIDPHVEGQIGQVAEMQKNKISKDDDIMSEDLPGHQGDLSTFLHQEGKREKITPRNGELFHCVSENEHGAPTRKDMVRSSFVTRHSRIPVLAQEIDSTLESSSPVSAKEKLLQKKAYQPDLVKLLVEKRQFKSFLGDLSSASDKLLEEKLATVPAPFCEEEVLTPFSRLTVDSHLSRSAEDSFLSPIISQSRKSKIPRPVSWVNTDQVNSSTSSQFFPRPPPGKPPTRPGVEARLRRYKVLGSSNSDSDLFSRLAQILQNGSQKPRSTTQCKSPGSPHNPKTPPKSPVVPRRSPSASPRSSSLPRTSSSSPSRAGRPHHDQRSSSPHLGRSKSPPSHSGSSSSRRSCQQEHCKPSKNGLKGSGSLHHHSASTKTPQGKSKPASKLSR
Excerpt: as §1
Assay [4] concerns the target T3, 363 human kinases (including Aurora A/B/C) (Homo sapiens, UniProt Q9BXA7).
T3 sequence (Q9BXA7 1-367): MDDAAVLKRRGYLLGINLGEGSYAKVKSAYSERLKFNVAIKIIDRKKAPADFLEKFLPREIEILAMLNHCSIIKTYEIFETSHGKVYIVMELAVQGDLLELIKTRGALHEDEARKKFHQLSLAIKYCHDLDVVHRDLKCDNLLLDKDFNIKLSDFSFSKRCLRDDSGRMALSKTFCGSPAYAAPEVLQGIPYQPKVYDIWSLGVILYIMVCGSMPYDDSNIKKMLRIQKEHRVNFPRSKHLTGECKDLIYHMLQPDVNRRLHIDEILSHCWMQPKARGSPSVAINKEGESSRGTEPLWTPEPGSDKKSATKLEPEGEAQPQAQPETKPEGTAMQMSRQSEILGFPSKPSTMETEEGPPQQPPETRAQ
The note with it: STK22D/TSSK1; for remaining activity at 0.1 µM: 100 nM; for remaining activity at 0.1 µM / remaining activity at 0.5 µM: read-out: % Enzyme Activity (relative to DMSO controls).
Excerpt: as §1

Assay [5] addresses 363 human kinases (including Aurora A/B/C) (Homo sapiens, UniProt P78368). To be noted: CK1g2, [ATP] 100 µM; for remaining activity at 0.1 µM: 100 nM; for remaining activity at 0.1 µM / remaining activity at 0.5 µM: read-out: % Enzyme Activity (relative to DMSO controls).
Excerpt: as §1
Assay [6] has as its target 363 human kinases (including Aurora A/B/C) (Homo sapiens, UniProt P36507). The note with it: MEK2; for remaining activity at 0.1 µM: 100 nM; for remaining activity at 0.1 µM / remaining activity at 0.5 µM: read-out: % Enzyme Activity (relative to DMSO controls).
Excerpt: as §1

Sequence of 363 human kinases (including Aurora A/B/C) (Homo sapiens, UniProt P78368) (P78368 whole entry): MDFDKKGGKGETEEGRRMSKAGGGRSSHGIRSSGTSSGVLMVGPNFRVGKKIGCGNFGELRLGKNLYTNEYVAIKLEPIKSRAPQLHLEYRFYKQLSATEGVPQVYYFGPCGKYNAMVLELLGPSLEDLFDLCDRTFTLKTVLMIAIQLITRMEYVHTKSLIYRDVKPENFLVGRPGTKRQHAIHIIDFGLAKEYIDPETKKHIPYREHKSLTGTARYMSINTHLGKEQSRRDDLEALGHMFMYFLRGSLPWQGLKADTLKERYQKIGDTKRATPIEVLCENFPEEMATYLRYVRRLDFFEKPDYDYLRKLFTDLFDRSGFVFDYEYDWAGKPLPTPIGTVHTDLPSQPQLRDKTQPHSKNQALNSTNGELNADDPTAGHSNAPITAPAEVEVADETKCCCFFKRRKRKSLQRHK
Sequence of 363 human kinases (including Aurora A/B/C) (Homo sapiens, UniProt P36507) (P36507 whole entry): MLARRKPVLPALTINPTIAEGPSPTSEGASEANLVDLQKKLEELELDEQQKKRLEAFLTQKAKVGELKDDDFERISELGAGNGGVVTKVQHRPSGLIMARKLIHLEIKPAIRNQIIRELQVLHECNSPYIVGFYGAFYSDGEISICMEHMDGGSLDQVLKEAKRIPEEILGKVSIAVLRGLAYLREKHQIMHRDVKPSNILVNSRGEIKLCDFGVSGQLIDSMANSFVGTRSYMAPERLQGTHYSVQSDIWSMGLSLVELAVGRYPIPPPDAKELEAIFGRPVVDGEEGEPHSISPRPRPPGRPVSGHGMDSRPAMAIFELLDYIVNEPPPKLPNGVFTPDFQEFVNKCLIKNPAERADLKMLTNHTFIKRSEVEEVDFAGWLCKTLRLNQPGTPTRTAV

For the compound `CCn1cc(-c2ccnc3[nH]c(-c4cccc(CN(C)C)c4)cc23)c(-c2ccc(NC(=O)N(C)C)cc2)n1` [GSK1070916], the remaining activity at 0.1 µM was 99.2% in assay [1]; 89.2% in assay [2]; 119% in assay [3]; 90.1% in assay [4]; 89.5% in assay [5]; 98.2% in assay [6].
For the compound `O=C(O)[C@]1(Cc2cccc(Nc3nccs3)n2)CC[C@@H](Oc2cccc(Cl)c2F)CC1` [MK-5108], the remaining activity at 0.1 µM in assay [1] stood at 16.1%; in assay [2], 42.4%; in assay [3], 99.8%; in assay [4], 106%; in assay [5], 107%; in assay [6], 95.6%. Also, the remaining activity at 0.5 µM in assay [1] (500 nM) was 8.95%; in assay [2] (500 nM) it was 13.9%; in assay [3] (500 nM), 111%; in assay [4] (500 nM) it was 94.4%; in assay [5] (500 nM), 80.2%; in assay [6] (500 nM), 90.3%.
As to `O=C(c1cccc(Cl)c1F)N1CCN(Cc2cccc(Nc3nccs3)n2)CC1` [MK-8745], the “% Enzyme Activity (relative to DMSO controls)” value in assay [1] (500 nM) is 88.95%; in assay [2] (500 nM), 65.66%; in assay [3] (500 nM), 109.64%; in assay [4] (500 nM), 93.43%; in assay [5] (500 nM), 86.46%; in assay [6] (500 nM), 93.13%. The remaining activity at 0.5 µM in assay [1] (500 nM) was found to be 91.4%; in assay [2] (500 nM) it was 65.9%; in assay [3] (500 nM), 110%; in assay [4] (500 nM) it was 93.6%; in assay [5] (500 nM) it was 87.5%; in assay [6] (500 nM), 95.2%.
